# Test results reported in PMC8890504, “Evolution of Brain-Expressed Biogenic Amine Receptors into Olfactory Trace Amine-Associated Receptors” (Molecular Biology and Evolution, 2022).
# pEC50: −log10 of the molar value. Several values for one entry are separate records, joined by “and”; a condition that tells them apart may be missing. Equal values may be shown once.
# Assays:
# [1] = target: shark TAARS1b (Chiloscyllium punctatum, UniProt A0A401S5C1); assay: Cell-based receptor activation reporter assay (SEAP / Dual-Glo luciferase); set-up: species or system bamboo shark
# Sequence of shark TAARS1b (A0A401S5C1 entry or part of it): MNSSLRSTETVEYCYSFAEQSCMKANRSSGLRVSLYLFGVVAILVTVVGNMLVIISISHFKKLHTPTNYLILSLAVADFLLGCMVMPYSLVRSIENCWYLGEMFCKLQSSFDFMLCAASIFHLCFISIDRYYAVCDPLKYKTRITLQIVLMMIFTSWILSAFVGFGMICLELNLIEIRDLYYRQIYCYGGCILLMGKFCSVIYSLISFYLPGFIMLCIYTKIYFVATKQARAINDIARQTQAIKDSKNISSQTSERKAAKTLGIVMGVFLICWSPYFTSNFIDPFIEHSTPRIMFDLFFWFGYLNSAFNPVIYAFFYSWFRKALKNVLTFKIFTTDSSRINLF
# Experimental: (§1) Fluorescence was measured with a BioTek Microplate reader.
# [2] = target: T1, mouse TAAR5 (Mus musculus, UniProt Q5QD14); assay: as above
# T1 construct: bovine rhodopsin N-terminal 20 amino acids (Rho tag); expressed in transfected cells; host or cells: HEK293(T) (SEAP assay) or Hana3A (Dual-Glo assay)
# Experimental: as §1
# [3] = target: T2, mouse TAAR8c (Mus musculus, UniProt Q5QD05); assay: as above
# T2 construct: bovine rhodopsin N-terminal 20 amino acids (Rho tag); expressed in transfected cells; host or cells: HEK293(T) (SEAP assay) or Hana3A (Dual-Glo assay)
# Experimental: as §1
# [4] = target: catfish TAAR13f (Ictalurus punctatus, UniProt A0A2D0SGW4); assay: as above
# Experimental: as §1
# [5] = target: catfish TAAR13h (Ictalurus punctatus, UniProt A0A2D0SG84); assay: as above
# Experimental: as §1
# [6] = target: cat TAAR6b (Felis catus, UniProt A0ABI7X994); assay: as above
# Experimental: as §1
# [7] = target: T3, mouse TAAR6 (Mus musculus, UniProt Q5QD13); assay: as above
# T3 construct: bovine rhodopsin N-terminal 20 amino acids (Rho tag); expressed in transfected cells; host or cells: HEK293(T) (SEAP assay) or Hana3A (Dual-Glo assay)
# T3 sequence (Q5QD13 whole entry): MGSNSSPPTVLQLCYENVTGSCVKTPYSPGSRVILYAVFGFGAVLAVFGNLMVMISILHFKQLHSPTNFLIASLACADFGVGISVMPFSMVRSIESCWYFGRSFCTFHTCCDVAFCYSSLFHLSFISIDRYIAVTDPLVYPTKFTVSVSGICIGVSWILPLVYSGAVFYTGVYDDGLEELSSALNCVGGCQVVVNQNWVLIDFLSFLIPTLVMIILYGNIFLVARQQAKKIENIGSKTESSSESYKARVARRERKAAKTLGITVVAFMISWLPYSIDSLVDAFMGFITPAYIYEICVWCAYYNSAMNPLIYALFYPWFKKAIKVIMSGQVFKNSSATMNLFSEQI
# Experimental: as §1
# [8] = target: T4, mouse TAAR7d (Mus musculus, UniProt Q5QD10); assay: as above
# T4 construct: bovine rhodopsin N-terminal 20 amino acids (Rho tag); expressed in transfected cells; host or cells: HEK293(T) (SEAP assay) or Hana3A (Dual-Glo assay)
# Experimental: as §1
# [9] = target: rabbit TAAR8b (Oryctolagus cuniculus, UniProt G1SRV7); assay: as above
# Experimental: as §1
# [10] = target: T5, rat TAAR6 (Rattus norvegicus, UniProt Q923Y5); assay: as above
# T5 construct: bovine rhodopsin N-terminal 20 amino acids (Rho tag); expressed in transfected cells; host or cells: HEK293(T) (SEAP assay) or Hana3A (Dual-Glo assay)
# T5 sequence (Q923Y5 whole entry): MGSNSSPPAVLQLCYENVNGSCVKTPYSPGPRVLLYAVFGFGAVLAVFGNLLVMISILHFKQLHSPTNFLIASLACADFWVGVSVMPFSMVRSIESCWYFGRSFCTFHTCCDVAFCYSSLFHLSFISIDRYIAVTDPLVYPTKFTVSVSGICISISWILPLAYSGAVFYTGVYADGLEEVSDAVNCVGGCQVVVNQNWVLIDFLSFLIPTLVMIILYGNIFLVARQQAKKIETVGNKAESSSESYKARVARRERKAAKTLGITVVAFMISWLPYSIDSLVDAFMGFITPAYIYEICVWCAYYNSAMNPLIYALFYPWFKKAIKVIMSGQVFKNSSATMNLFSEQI
# Experimental: as §1
# [11] = target: T6, rat TAAR7a (Rattus norvegicus, UniProt Q923Y2); assay: as above
# T6 construct: bovine rhodopsin N-terminal 20 amino acids (Rho tag); expressed in transfected cells; host or cells: HEK293(T) (SEAP assay) or Hana3A (Dual-Glo assay)
# Experimental: as §1
# [12] = target: T7, rat TAAR8a (Rattus norvegicus, UniProt Q923X9); assay: as above
# T7 construct: bovine rhodopsin N-terminal 20 amino acids (Rho tag); expressed in transfected cells; host or cells: HEK293(T) (SEAP assay) or Hana3A (Dual-Glo assay)
# T7 sequence (Q923X9 whole entry): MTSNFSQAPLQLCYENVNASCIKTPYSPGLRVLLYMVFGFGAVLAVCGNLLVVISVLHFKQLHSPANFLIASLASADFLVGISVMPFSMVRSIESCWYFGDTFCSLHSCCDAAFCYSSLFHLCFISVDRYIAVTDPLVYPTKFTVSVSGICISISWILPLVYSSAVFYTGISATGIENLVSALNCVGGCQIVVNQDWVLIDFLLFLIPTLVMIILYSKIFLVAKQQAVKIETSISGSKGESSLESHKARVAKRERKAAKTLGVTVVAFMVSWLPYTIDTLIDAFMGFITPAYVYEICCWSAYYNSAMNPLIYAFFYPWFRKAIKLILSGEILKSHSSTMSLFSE
# Experimental: as §1
# [13] = target: T8, rat TAAR9 (Rattus norvegicus, UniProt Q923Y6); assay: as above
# T8 construct: bovine rhodopsin N-terminal 20 amino acids (Rho tag); expressed in transfected cells; host or cells: HEK293(T) (SEAP assay) or Hana3A (Dual-Glo assay)
# T8 sequence (Q923Y6 1-338): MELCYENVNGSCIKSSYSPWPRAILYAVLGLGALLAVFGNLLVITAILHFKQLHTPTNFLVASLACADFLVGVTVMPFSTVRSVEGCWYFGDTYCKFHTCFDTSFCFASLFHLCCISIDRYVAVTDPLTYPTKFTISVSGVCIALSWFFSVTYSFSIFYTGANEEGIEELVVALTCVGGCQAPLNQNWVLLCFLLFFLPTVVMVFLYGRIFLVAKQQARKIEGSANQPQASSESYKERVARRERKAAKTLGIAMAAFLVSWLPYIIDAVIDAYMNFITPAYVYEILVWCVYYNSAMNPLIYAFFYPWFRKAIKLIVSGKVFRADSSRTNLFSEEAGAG
# Experimental: as §1
# [14] = target: wild boar TAAR7 (Sus scrofa, UniProt F1S3Q1); assay: as above
# Sequence of wild boar TAAR7 (F1S3Q1 entry or part of it): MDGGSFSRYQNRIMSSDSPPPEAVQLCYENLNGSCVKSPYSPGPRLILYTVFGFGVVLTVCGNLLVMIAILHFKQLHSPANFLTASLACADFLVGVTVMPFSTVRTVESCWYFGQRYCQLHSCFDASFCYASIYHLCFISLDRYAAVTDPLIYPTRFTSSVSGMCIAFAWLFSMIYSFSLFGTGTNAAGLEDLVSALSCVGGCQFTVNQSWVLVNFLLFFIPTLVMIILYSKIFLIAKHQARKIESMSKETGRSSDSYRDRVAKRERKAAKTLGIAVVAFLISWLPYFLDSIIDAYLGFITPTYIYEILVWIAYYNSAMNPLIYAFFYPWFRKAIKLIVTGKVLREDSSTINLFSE
# Experimental: as §1
# [15] = target: cat TAAR4 (Felis catus, UniProt A0ABI7X9K0); assay: as above
# Sequence of cat TAAR4 (A0ABI7X9K0 entry or part of it): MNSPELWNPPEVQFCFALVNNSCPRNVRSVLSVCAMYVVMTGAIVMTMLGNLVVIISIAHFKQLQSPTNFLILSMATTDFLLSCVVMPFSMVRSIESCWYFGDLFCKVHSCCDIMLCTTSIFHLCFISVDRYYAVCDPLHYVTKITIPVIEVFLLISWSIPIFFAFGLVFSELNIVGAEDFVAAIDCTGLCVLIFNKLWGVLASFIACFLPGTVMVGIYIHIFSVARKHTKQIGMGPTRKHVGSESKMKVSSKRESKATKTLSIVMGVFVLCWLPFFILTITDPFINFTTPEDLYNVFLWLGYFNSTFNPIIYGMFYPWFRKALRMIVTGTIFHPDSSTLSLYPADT
# Experimental: as §1
# [16] = target: cow TAAR4 (Bos taurus, UniProt F1MNY9); assay: as above
# Experimental: as §1
# [17] = target: guinea pig TAAR4 (Cavia porcellus, UniProt H0W119); assay: as above
# Sequence of guinea pig TAAR4 (H0W119 entry or part of it): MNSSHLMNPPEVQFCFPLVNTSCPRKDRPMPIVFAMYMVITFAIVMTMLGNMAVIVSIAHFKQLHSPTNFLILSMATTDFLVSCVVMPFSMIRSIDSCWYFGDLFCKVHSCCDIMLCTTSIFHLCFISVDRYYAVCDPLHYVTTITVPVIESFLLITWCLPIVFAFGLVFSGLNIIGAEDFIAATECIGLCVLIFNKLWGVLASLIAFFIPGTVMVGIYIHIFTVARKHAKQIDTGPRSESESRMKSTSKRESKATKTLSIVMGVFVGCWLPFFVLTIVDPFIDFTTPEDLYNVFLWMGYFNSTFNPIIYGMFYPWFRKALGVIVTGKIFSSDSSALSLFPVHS
# Experimental: as §1
# [18] = target: hamster TAAR4 (Mesocricetus auratus, UniProt A0A1U7Q3I9); assay: as above
# Sequence of hamster TAAR4 (A0A1U7Q3I9 entry or part of it): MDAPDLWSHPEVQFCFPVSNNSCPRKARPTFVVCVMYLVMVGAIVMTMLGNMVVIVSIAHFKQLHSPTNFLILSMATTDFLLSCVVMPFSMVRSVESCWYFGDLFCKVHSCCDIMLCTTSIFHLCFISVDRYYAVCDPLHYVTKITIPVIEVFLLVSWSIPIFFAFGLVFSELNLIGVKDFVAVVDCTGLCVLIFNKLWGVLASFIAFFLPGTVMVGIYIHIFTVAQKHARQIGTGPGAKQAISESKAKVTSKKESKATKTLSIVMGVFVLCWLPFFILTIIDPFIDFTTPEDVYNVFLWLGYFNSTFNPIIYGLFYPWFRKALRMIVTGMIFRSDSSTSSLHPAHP
# Experimental: as §1
# [19] = target: horse TAAR4 (Equus caballus, UniProt F7BPI5); assay: as above
# Sequence of horse TAAR4 (F7BPI5 entry or part of it): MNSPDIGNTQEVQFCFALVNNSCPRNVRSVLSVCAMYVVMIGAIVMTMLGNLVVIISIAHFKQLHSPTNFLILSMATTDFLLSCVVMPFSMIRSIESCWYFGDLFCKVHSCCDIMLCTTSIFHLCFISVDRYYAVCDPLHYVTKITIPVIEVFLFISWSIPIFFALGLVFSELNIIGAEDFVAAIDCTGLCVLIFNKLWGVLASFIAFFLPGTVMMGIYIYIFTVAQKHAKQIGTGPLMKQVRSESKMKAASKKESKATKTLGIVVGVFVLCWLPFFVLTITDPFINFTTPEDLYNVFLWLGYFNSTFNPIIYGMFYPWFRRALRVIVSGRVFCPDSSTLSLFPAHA
# Experimental: as §1
# [20] = target: zebrafish TAAR12j (Danio rerio, UniProt Q5QNN7); assay: as above
# Experimental: as §1
# [21] = system: TARL1; assay: Response to 16 ligands at 10 µM, luciferase assay; type: cell-based; details: fig. 5B
# Experimental: (§2) Ligand profiles and expression patterns of HTR4, TARL, and TAAR1. (A) qPCR analysis of different receptors in zebrafish tissues. Gapdh serves as a control. (B) Response of HTR4, TARL, TAARC1, and TAAR1 to 16 ligands at 10 μM. The heatmap is based on the ratio of fluorescence intensity of ligand–receptor interaction and no ligand controls in the luciferase assay. […] (C) PhyloPCA analysis on the responses of HTR4, TARL, TAARC1, and TAAR1 to these 16 ligands. […] Dots colored by receptor clades represent the ligand responses of receptors on the first two PC axes. Ligand eigenvectors are represented by lines and colored according to the ligand clusters. A ligand name is shown at the tip of the line if its eigenvector has a higher contribution (compared with other ligands) to either PC1 or PC2. […] (D) The presence of HTR4, TARL1, TARL2, and TAAR1 in several representative species in vertebrates is plotted. […]
# (§3) Hana3A cells were plated onto 96-well plates (Greiner bio-one) with 50 µl growth medium (DMEM medium with 10% BCS and 5% penicillin–streptomycin solution with puromycin) and cultured at 37 °C with 5% CO2. […] The chemiluminescence of firefly luciferase and renilla luciferase were measured with a Biotek Microplate reader using the Dual-Glo Luciferase Assay System (Promega).
# [22] = system: TARL2; assay: Response to 16 ligands at 10 µM, luciferase assay; type: cell-based, coelacanth and shark; details: fig. 5B
# Experimental: as §2, §3
# [23] = target: T9, mouse TAAR8a (Mus musculus, UniProt Q5QD07); assay: Cell-based receptor activation reporter assay (SEAP / Dual-Glo luciferase)
# T9 construct: bovine rhodopsin N-terminal 20 amino acids (Rho tag); expressed in transfected cells; host or cells: HEK293(T) (SEAP assay) or Hana3A (Dual-Glo assay)
# Experimental: as §1
# [24] = target: cat TAAR5 (Felis catus, UniProt A0ABI7YAE2); assay: as above
# Experimental: as §1
# [25] = target: sheep TAAR5 (Ovis aries, UniProt A0ACI6PZ16); assay: as above
# Sequence of sheep TAAR5 (A0ACI6PZ16 entry or part of it): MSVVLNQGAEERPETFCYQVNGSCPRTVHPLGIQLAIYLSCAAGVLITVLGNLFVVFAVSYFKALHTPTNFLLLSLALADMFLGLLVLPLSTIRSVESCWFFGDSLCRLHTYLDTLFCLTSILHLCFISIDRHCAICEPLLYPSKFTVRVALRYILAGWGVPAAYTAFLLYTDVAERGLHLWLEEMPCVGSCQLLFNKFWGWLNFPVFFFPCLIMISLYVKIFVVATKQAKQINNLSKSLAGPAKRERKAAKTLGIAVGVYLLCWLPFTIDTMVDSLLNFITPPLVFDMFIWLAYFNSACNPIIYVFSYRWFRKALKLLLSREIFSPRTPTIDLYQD
# Experimental: as §1
# [26] = target: cow TAAR5 (Bos taurus, UniProt F1MTC9); assay: cell-based; details: EC50 (μM)
# Sequence of cow TAAR5 (F1MTC9 entry or part of it): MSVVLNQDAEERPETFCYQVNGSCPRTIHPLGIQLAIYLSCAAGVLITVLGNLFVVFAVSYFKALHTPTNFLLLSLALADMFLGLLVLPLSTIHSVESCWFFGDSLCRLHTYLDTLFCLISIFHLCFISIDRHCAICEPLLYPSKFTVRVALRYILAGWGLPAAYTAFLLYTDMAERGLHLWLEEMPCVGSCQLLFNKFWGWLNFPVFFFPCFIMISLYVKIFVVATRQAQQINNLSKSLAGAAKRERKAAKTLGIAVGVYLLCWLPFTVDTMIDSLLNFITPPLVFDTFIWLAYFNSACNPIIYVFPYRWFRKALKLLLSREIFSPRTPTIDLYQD
# Text: (§4) Next, we conducted high-throughput screening to further explore the functional properties of these aminergic receptors. We cloned 248 TAARs from 11 mammals (human, mouse, rat, guinea pig, hamster, cat, horse, rabbit, sheep, rhesus, and wild boar), two reptiles (alligator and chicken), six teleosts (zebrafish, catfish, fugu, medaka, salmon, and pufferfish), one lobed-finned fish (coelacanth), one holost fish (spotted gar), and one cartilaginous fish (bamboo shark) (fig. 2A). We also cloned eight TARLs from coelacanth, zebrafish, catfish, fugu, medaka, spotted gar, shark, and 28 TARLLs from sea lamprey (supplementary table S2, Supplementary Material online). In addition, we cloned two HTR4s from mouse and zebrafish. We then challenged all of the cloned receptors with a ligand library comprised 97 amines at 100 µM.
# (§5) HEK293 cells were plated onto poly-D-lysine (Sigma–Aldrich) preincubated 96-well plates (Corning) with 50 µl growth medium (DMEM medium with 10% BCS and 5% penicillin–streptomycin solution) and cultured for 18–24 h. Receptor plasmids were cotransfected with Cre-SEAP plasmid using polyethylenimine (PEI, Polysciences) and incubated at 37 °C with 5% CO2. About 4 h later, cells were incubated with or without test compounds diluted in serum-free DMEM for 48 h, followed by incubating for 2 h at 70 °C. After returning to room temperature, 50 µl supernatant from each well was incubated with an equal volume of 0.3 mM 4-methylumbelliferyl phosphate (4-MUP, Sigma–Aldrich) in 2 M diethanolamine bicarbonate (Sigma–Aldrich), pH 10.0 for 15 min. Fluorescence was measured with a BioTek Microplate reader.
# (§6) Hana3A cells were plated onto 96-well plates (Greiner bio-one) with 50 µl growth medium (DMEM medium with 10% BCS and 5% penicillin–streptomycin solution with puromycin) and cultured at 37 °C with 5% CO2. After 18–24 h, cells in each well were cotransfected with 50 ng receptor plasmid, 10 ng CRE-Luc, 10 ng pRL-SV40, and 10 ng mRTPs using Lipofectamine 2000 (Invitrogen), and incubated for 18 h. Medium was then replaced by 25 µl CD293 (Invitrogen) containing 1% glutamine with or without test compounds for 4 h. The chemiluminescence of firefly luciferase and renilla luciferase were measured with a Biotek Microplate reader using the Dual-Glo Luciferase Assay System (Promega).
# [27] = target: hamster TAAR5 (Mesocricetus auratus, UniProt A0A1U7QEC3); assay: cell-based
# Text: as §4, §5, §6
# [28] = target: shark TARL2 (Chiloscyllium punctatum, UniProt A0A401SGR3); assay: Cell-based receptor activation reporter assay (SEAP / Dual-Glo luciferase); set-up: species or system bamboo shark
# Experimental: as §1
# [29] = target: TARLL1b (Petromyzon marinus, UniProt A0AAJ7TCG4); assay: as above; set-up: species or system sea lamprey; details: TARLL1b
# Experimental: as §1
# [30] = target: mouse TAAR1 (Mus musculus, UniProt Q923Y8); assay: cell-based; details: mTAAR1
# Text: as §4
# We then compared the responses of HTR4 from mouse and zebrafish, TARL1 from zebrafish, catfish, fugu, medaka, spotted gar, and coelacanth, TARL2 from coelacanth and shark, TAAR1 from mouse and zebrafish to the 16 ligands at 10 µM (fig. 5B).
# as §5, §6
# [31] = target: (UniProt Z9G6W3R3V9); assay: Cell-based receptor activation reporter assay (SEAP / Dual-Glo luciferase); details: coelacanth TARL1
# Experimental: as §1
# [32] = target: catfish TAAR13g (Ictalurus punctatus, UniProt A0A2D0SG81); assay: as above
# Sequence of catfish TAAR13g (A0A2D0SG81 entry or part of it): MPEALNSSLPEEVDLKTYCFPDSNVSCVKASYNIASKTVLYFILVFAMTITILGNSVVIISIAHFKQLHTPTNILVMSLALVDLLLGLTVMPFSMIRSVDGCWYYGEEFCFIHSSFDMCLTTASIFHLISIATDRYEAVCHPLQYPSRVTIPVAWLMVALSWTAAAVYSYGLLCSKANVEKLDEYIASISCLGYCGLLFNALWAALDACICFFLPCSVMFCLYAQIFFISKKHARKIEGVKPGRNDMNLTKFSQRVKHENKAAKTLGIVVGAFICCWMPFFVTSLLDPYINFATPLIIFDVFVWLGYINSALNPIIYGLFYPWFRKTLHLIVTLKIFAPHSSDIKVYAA
# Experimental: as §1
# [33] = target: coelacanth TAARC1b (Latimeria chalumnae, UniProt H3A8V0); assay: as above
# Experimental: as §1
# [34] = target: coelacanth TARL2 (Latimeria chalumnae, UniProt H3AWX3); assay: as above
# Experimental: as §1
# [35] = target: spotted gar TARL1 (Lepisosteus oculatus, UniProt W5NNR6); assay: as above
# Experimental: as §1
# [36] = target: zebrafish TAAR1 (Danio rerio, UniProt Q5QNN1); assay: as above; details: zTAAR1
# Experimental: as §1
# [37] = target: zebrafish TARL1 (Danio rerio, UniProt A0A8M1Q794); assay: as above
# Experimental: as §1
# [38] = target: mouse HTR4 (Mus musculus, UniProt P97288); assay: cell-based
# Sequence of mouse HTR4 (P97288 whole entry): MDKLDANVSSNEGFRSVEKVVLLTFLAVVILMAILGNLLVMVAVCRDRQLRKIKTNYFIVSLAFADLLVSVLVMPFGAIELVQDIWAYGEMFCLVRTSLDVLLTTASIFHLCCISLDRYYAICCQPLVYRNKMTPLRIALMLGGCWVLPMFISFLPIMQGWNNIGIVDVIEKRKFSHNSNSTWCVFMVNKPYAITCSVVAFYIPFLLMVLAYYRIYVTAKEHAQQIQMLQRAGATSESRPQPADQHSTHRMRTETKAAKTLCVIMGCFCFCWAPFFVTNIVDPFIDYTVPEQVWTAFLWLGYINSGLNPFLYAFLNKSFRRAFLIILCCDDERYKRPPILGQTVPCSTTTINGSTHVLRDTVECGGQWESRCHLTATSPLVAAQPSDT
# Text: as §4, §5, §6
# [39] = system: medaka TAAR21f; assay: Cell-based receptor activation reporter assay (SEAP / Dual-Glo luciferase)
# Experimental: as §1
# [40] = target: spotted gar TAAR1b (Lepisosteus oculatus, UniProt W5NMY1); assay: as above
# Sequence of spotted gar TAAR1b (W5NMY1 entry or part of it): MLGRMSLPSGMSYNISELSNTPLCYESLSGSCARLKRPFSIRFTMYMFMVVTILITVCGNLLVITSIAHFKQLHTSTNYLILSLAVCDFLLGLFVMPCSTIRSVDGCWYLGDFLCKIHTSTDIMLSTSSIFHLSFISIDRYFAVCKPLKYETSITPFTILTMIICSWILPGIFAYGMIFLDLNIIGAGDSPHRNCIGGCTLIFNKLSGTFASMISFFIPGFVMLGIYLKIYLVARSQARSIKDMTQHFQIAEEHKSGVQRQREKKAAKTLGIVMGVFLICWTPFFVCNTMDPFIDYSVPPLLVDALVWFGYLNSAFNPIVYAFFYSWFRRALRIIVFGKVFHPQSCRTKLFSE
# Experimental: as §1
structure (smiles),measurement,setting,value
CN1CCCCC1 [1-methylpiperidine],pEC50,[1],4.75
same,pEC50,[2],5.09
same,pEC50,[3],5.82
"N=C(N)NCCCCN [Agmatine, agmatine]",pEC50,[4],10.40
same,pEC50,[5],3.78
"CN(C)C1CCCCC1 [N,N-dimethylcyclohexylamine]",pEC50,[6],4.00
same,pEC50,[7],~4.30
same,pEC50,[8],3.97
same,pEC50,[9],~4.30
same,pEC50,[10],~4.30
same,pEC50,[11],4.31
same,pEC50,[12],4.56
same,pEC50,[13],~4.52
same,pEC50,[14],4.30 and ~4.30
"NCCc1ccccc1 [Phenylethylamine, phenylethylamine]",pEC50,[15],4.52 and ~4.52
same,pEC50,[16],4.01
same,pEC50,[17],3.82 and ~3.82
same,pEC50,[18],3.52 and ~3.52
same,pEC50,[19],4.00 and ~4.00
same,pEC50,[20],5.32
same,TARL1 ligand profile,[21],ligands include
same,TARL2 ligand profile,[22],cannot recognize
"C1CCNCC1 [Piperidine, piperidine]",pEC50,[23],~3.52
"CN(C)C [Trimethylamine, trimethylamine]",pEC50,[1],5.85
same,pEC50,[24],5.16
same,pEC50,[25],3.30 and ~3.30
same,EC50,[26],300 µM and ~300 µM
same,pEC50,[27],5.64
"NCCc1c[nH]c2ccccc12 [Tryptamine, tryptamine]",pEC50,[28],~4.40
same,pEC50,[29],~4.00
same,pEC50,[30],~4.55
same,pEC50,[31],4.74
same,pEC50,[32],~4.52
same,pEC50,[33],~3.82
same,pEC50,[34],~3.70
same,pEC50,[35],5.51
same,pEC50,[36],~4.28
same,pEC50,[37],7.40
same,pEC50,[38],~3.74
same,TARL1 ligand profile,[21],ligands include
"NCCc1ccc(O)cc1 [Tyramine, tyramine]",pEC50,[39],7.05
same,pEC50,[40],6.15
